# Values quoted from earlier work in patent publication US5658892A, “Compound delivery using high-pressure impulse transients” (The General Hospital Corporation, priority 1995, dated 1997).
# Tested on: prostate tumors
# Conditions: rats, Holmes et al. 1990
structure (smiles),measurement,setting,value
N.N.[Cl][Pt][Cl] [cisplatinum],tumor growth,"combined with high-pressure, short-duration waves",delayed tumor growth was achieved
same,animal mortality (relative to cisplatinum alone),combined with shock wave therapy,an increase in animal mortality
